According to patent US8501786B2, “Hydroxymethyl pyrrolidines as beta 3 adrenergic receptor agonists” (Merck Sharp & Dohme Corp., priority 2009, dated 2013):
Counter-ions that a name gives are not always drawn.

target: T1, human β3 adrenergic receptor (Homo sapiens, UniProt P13945); assay: Functional assay: cAMP production (LANCE TR-FRET) in CHO cells stably transfected with cloned β3 adrenergic receptor; assay type: cell-based; conditions: Table 3; cAMP production, CHO cells expressing human β3 AR; read-out: Human β3 functional
T1 construct: stably transfected with the cloned β-adrenergic receptor (β1, β2 or β3); expressed in transfected cells; host or cells: Chinese hamster ovary (CHO) cells, stably transfected
T1 sequence (P13945 whole entry): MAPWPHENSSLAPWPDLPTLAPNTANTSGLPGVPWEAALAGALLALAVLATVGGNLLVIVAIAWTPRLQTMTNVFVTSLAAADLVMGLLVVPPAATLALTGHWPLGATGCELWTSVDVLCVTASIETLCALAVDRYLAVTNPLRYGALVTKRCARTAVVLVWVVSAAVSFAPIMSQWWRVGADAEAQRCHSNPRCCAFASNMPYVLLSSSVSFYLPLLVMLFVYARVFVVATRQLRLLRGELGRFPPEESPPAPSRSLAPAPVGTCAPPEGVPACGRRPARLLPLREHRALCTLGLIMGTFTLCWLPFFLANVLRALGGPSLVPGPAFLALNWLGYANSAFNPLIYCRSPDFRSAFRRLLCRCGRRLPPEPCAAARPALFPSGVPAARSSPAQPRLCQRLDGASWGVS
Description: Functional Assay: cAMP production in response to ligand is measured according to Barton, et al. (1991, Agonist-induced desensitization of D2 dopamine receptors in human Y-79 retinoblastoma cells. Mol. Pharmacal. v3229:650-658) modified as follows, cAMP production is measured using a homogenous time-resolved fluorescence resonance energy transfer immunoassay (LANCE™, Perkin Elmer) according to the manufacture's instructions. Chinese hamster ovary (CHO) cells, stably transfected with the cloned β-adrenergic receptor (β1, β2 or β3) are harvested after 3 days of subculturing. Harvesting of cells is done with Enzyme-free Dissociation Media (Specialty Media). Cells are then counted and resuspended in assay buffer (Hank's Balanced salt solution supplemented with 5 mM HEPES, […]) containing a phosphodiesterase inhibitor (IBMX, 0.6 mM). The reaction is initiated by mixing 6,000 cells in 6 μL with 6 μL Alexa Fluor labeled cAMP antibody (LANCE™ kit) which is then added to an assay well containing 12 μL of compound (diluted in assay buffer to 2× final concentration). The reaction proceeds for 30 min at room temperature and is terminated by the addition of 24 ul detection buffer (LANCE™ kit). The assay plate is then incubated for 1 h at room temperature and time-resolved fluorescence measured on a Perkin Elmer Envision reader or equivalent. The unknown cAMP level is determined by comparing fluorescence levels to a cAMP standard curve.
The non-selective, full agonist β-adrenergic ligand isoproterenol is used at all three receptors to determine maximal stimulation. The human β3 adrenergic receptor (AR) selective ligand (S)-N-[4-[2-[[2-hydroxy-3-(4-hydroxyphenoxy)propyl]amino]ethyl]-phenyl]-4-iodobenzenesulfonamide is used as a control in all assays. Isoproterenol is titrated at a final concentration in the assay of 10^-10 M to 10-5 and the selective ligand (S)-N-[4-[2-[[2-hydroxy-3-(4-hydroxyphenoxy)propyl]amino]ethyl]phenyl]-4-iodobenzenesulfonamide is titrated at the β3 receptor at concentration of 10^-10 M to 10^-5 M. Unknown ligands are titrated at all 3 β-adrenergic receptor subtypes at a final concentration in the assay of 10^-10 M to 10^-5 M to determine the EC50. The EC50 is defined as the concentration of compound that gives 50% activation of its own maximum. Data are analyzed using Microsoft Excel and Graphpad Prism or an internally developed data analysis software package.

Structure (SMILES)	EC50 [nM]
CCC(C(=O)Nc1ccc(CC2CC[C@H]([C@H](O)c3cccnc3)N2)cc1)n1cccn1 (single isomer, unassigned) [Example 185]	1 to 10
O=C(Nc1ccc(CC2CC[C@H]([C@H](O)c3cccnc3)N2)cc1)C1CCc2sc(Cl)nc21 (single isomer, unassigned) [Example 186]	< 1
O=C(Nc1ccc(CC2CC[C@H]([C@H](O)c3cccnc3)N2)cc1)C1CCc2sc(Cl)nc21 (single isomer, unassigned) [Example 187]	11 to 100
O=C(Nc1ccc(CC2CC[C@H]([C@H](O)c3cccnc3)N2)cc1)C1CCc2sc(CO)nc21 (single isomer, unassigned) [Example 188]	1 to 10
O=C(Nc1ccc(CC2CC[C@H]([C@H](O)c3cccnc3)N2)cc1)C1CCc2sc(CO)nc21 (single isomer, unassigned) [Example 189]	11 to 100
O=C(Nc1ccc(CC2CC[C@H]([C@H](O)c3cccnc3)N2)cc1)C1CCc2scnc21 (single isomer, unassigned) [Example 190]	< 1
O=C(Nc1ccc(CC2CC[C@H]([C@H](O)c3cccnc3)N2)cc1)C1CCc2scnc21 (single isomer, unassigned) [Example 191]	11 to 100
O=C(Nc1ccc(CC2CC[C@H]([C@H](O)c3cccnc3)N2)cc1)C1CCc2nc3ccccc3c(=O)n21 (single isomer, unassigned) [Example 192]	11 to 100
O=C(Nc1ccc(CC2CC[C@H]([C@H](O)c3cccnc3)N2)cc1)C1CCc2nc3ccccc3c(=O)n21 (single isomer, unassigned) [Example 193]	1 to 10
O=C(Nc1ccc(CC2CC[C@H]([C@H](O)c3cccnc3)N2)cc1)[C@@H]1CCc2ncnn21 (single isomer, unassigned) [Example 194]	11 to 100
CC(C(=O)Nc1ccc(CC2CC[C@H]([C@H](O)c3cccnc3)N2)cc1)c1cscn1 (single isomer, unassigned) [Example 195]	< 1
CC(C(=O)Nc1ccc(CC2CC[C@H]([C@H](O)c3cccnc3)N2)cc1)c1cscn1 (single isomer, unassigned) [Example 196]	11 to 100
O=C1CC[C@@H](C(=O)Nc2ccc(CC3CC[C@H]([C@H](O)c4cccnc4)N3)cc2)N1 (single isomer, unassigned) [Example 197]	101 to 1000
CC(C(=O)Nc1ccc(CC2CC[C@H]([C@H](O)c3cccnc3)N2)cc1)n1cc(C(=O)O)nn1 (single isomer, unassigned) [Example 198]	11 to 100
CC(C(=O)Nc1ccc(CC2CC[C@H]([C@H](O)c3cccnc3)N2)cc1)n1cc(C(=O)O)nn1 (single isomer, unassigned) [Example 199]	11 to 100
CC(C(=O)Nc1ccc(CC2CC[C@H]([C@H](O)c3cccnc3)N2)cc1)n1cc(C(N)=O)nn1 (single isomer, unassigned) [Example 200]	11 to 100
CC(C(=O)Nc1ccc(CC2CC[C@H]([C@H](O)c3cccnc3)N2)cc1)n1cc(C(N)=O)nn1 (single isomer, unassigned) [Example 201]	1 to 10
CC(C(=O)Nc1ccc(CC2CC[C@H]([C@H](O)c3cccnc3)N2)cc1)n1ccc(C(N)=O)n1 (single isomer, unassigned) [Example 202]	1 to 10
CC(C(=O)Nc1ccc(CC2CC[C@H]([C@H](O)c3cccnc3)N2)cc1)n1ccc(C(N)=O)n1 (single isomer, unassigned) [Example 203]	101 to 1000

Structure (SMILES)	EC50 [nM]
CCC(C(=O)Nc1ccc(CC2CC[C@H]([C@H](O)c3cccnc3)N2)cc1)c1cscn1 (single isomer, unassigned) [Example 204]	1 to 10
CCC(C(=O)Nc1ccc(CC2CC[C@H]([C@H](O)c3cccnc3)N2)cc1)c1cscn1 (single isomer, unassigned) [Example 205]	11 to 100
CC(C(=O)Nc1ccc(CC2CC[C@H]([C@H](O)c3cccnc3)N2)cc1)n1nncc1C(=O)O (single isomer, unassigned) [Example 206]	1 to 10
CC(C(=O)Nc1ccc(CC2CC[C@H]([C@H](O)c3cccnc3)N2)cc1)n1nncc1C(=O)O (single isomer, unassigned) [Example 207]	11 to 100
COC(=O)c1cnnn1C(C)C(=O)Nc1ccc(CC2CC[C@H]([C@H](O)c3cccnc3)N2)cc1 (single isomer, unassigned) [Example 208]	1 to 10
COC(=O)c1cnnn1C(C)C(=O)Nc1ccc(CC2CC[C@H]([C@H](O)c3cccnc3)N2)cc1 (single isomer, unassigned) [Example 209]	101 to 1000
Cc1cn(C(C)C(=O)Nc2ccc(CC3CC[C@H]([C@H](O)c4cccnc4)N3)cc2)nn1 (single isomer, unassigned) [Example 210]	11 to 100
Cc1cn(C(C)C(=O)Nc2ccc(CC3CC[C@H]([C@H](O)c4cccnc4)N3)cc2)nn1 (single isomer, unassigned) [Example 211]	11 to 100
Cc1cnnn1C(C)C(=O)Nc1ccc(CC2CC[C@H]([C@H](O)c3cccnc3)N2)cc1 (single isomer, unassigned) [Example 212]	101 to 1000
Cc1cnnn1C(C)C(=O)Nc1ccc(CC2CC[C@H]([C@H](O)c3cccnc3)N2)cc1 (single isomer, unassigned) [Example 213]	1 to 10
CC(C(=O)Nc1ccc(CC2CC[C@H]([C@H](O)c3cccnc3)N2)cc1)c1ccn(C)n1 (single isomer, unassigned) [Example 214]	11 to 100
CC(C(=O)Nc1ccc(CC2CC[C@H]([C@H](O)c3cccnc3)N2)cc1)c1ccn(C)n1 (single isomer, unassigned) [Example 215]	101 to 1000
Cc1nnc2c(C(C)C(=O)Nc3ccc(CC4CC[C@H]([C@H](O)c5cccnc5)N4)cc3)cccn12 (single isomer, unassigned) [Example 216]	11 to 100
Cc1nnc2c(C(C)C(=O)Nc3ccc(CC4CC[C@H]([C@H](O)c5cccnc5)N4)cc3)cccn12 (single isomer, unassigned) [Example 217]	11 to 100
CC(C(=O)Nc1ccc(CC2CC[C@H]([C@H](O)c3cccnc3)N2)cc1)n1cnc2ccccc2c1=O (single isomer, unassigned) [Example 218]	1 to 10
CC(C(=O)Nc1ccc(CC2CC[C@H]([C@H](O)c3cccnc3)N2)cc1)n1cc(C(N)=O)cn1 (single isomer, unassigned) [Example 219]	1 to 10
COCCC(C(=O)Nc1ccc(CC2CC[C@H]([C@H](O)c3cccnc3)N2)cc1)n1cccn1 (single isomer, unassigned) [Example 220]	1 to 10
COCCC(C(=O)Nc1ccc(CC2CC[C@H]([C@H](O)c3cccnc3)N2)cc1)n1cccn1 (single isomer, unassigned) [Example 221]	1 to 10

same assay, conditions: Table 5; human β3 functional activity given as ranges; read-out: Human β3 functional

Structure (SMILES)	EC50 [nM]
O=C(Nc1ccc(CC2CC[C@H]([C@H](O)c3cccnc3)N2)cc1Br)C1CCc2sc(I)nc21 (single isomer, unassigned) [Example 243]	101 to 1000
O=C(Nc1ccc(CC2CC[C@H]([C@H](O)c3cccnc3)N2)cc1Br)C1CCc2sc(I)nc21 (single isomer, unassigned) [Example 244]	11 to 100

same assay, conditions: cAMP production, CHO cells expressing human β3 AR; read-out: human Beta-3 agonist functional activity

Structure (SMILES)	EC50 [nM]
O=C(Nc1ccc(CC2CCC(C(O)c3cccnc3)N2)cc1Br)C1CCc2sc(Br)nc21 (single isomer, unassigned) [Example 240, (4S or 4R)-2-bromo-N-[2-bromo-4-({(2S,5R)-5-[(R)-hydroxy(pyridin-3-yl)methyl]pyrrolidin-2-yl}methyl)phenyl]-5,6-dihydro-4H-cyclopenta[d][1,3]thiazole-4-carboxamide]	< 1000
O=C(Nc1ccc(CC2CCC(C(O)c3cccnc3)N2)cc1Br)C1CCc2sc(Br)nc21 (single isomer, unassigned) [Example 241, (4S or 4R)-2-bromo-N-[2-bromo-4-({(2S,5R)-5-[(R)-hydroxy(pyridin-3-yl)methyl]pyrrolidin-2-yl}methyl)phenyl]-5,6-dihydro-4H-cyclopenta[d][1,3]thiazole-4-carboxamide]	< 100
Nc1nc(CC(=O)Nc2ccc(C[C@@H]3CC[C@H]([C@H](O)c4cccnc4)N3)cc2)cs1 [Example 1, 2-2-Amino-1,3-thiazol-4-yl)-N-[4-({(2S,5R)-5-[(R)-hydroxy(pyridin-3-yl)methyl]pyrrolidin-2-yl}methyl)phenyl]acetamide, trfluoroacetic acid salt]	< 10
